Measured values: US6962909B2, “Treatment of neovascularization disorders with squalimine” (Genaera Corporation, priority 1995, dated 2005)

Experiments:
HIV clinical isolate = assay: HIV replication in PHA-stimulated lymphocytes (P-24 antigen Elisa); type: cell-based; set-up: P-24 Elisa: unit not given here; conditions: for P-24 Elisa: 7 days
Protocol: PHA-stimulated lymphocytes were inoculated with a clinical isolate of HIV at a multiplicity of infection of […]. Fresh lymphocytes were obtained and stimulated with PHA and IL-2. After 3 days, 1000 TCID of virus-(HIV clinical isolate) were applied for 1 hour and there was a M.O.I. of 1:10. The cells were washed and in a dose response fashion, and drug in media was applied. After 3 days, the supernatant was exchanged with ½ volume of fresh media and ½ the volume of fresh drug. After 7 days, detergent was added, and HIV P-24 Antigen was determined by Elisa. Viability of the lymphocytes was evaluated along with appearance of the viral gene product p24.

[1] = tested on: Human coronary artery smooth muscle cells; assay: In vitro growth of coronary artery smooth muscle; type: cell-based
From the text: As set forth in Table 7 below, all malignant tumors evaluated in tissue culture, endothelial cells and vascular smooth muscle cells were sensitive to inhibition. Thus, compound 1436 has application in the control of growth factor dependent proliferation of many types of tissue.
Aminosterols of the invention may also have utility in inhibiting the growth factor mediated proliferation of smooth muscle within the artery. Following coronary angioplasty, reocclusion commonly occurs, secondary to reparative proliferation of the vascular smooth muscle within the wall of the surgically manipulated blood vessel. This process generally takes place over the course of 7-10 days. To evaluate whether an agent could prevent the growth factor mediated proliferation of smooth muscle within the artery, compound 1436 was evaluated in vitro for its effect on the proliferation of human coronary artery smooth muscle. Results for compound 1436 are shown in FIG. 13, and those for squalamine are shown in FIG. 14, with FIG. 15 being a composite logarithmic plot.

[2] = tested on: human microvascular cells; assay: Endothelial cord formation assay; type: cell-based; on Effect on endothelial cord formation: key: + = Inhibition of angiogenesis; − = No inhibition of angiogenesis; T = Toxic; *= cell rounding @ 10 µg/ml
In short: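 Human microvascular endothelial cells plated on collagen matrix with VEGF and basic fibroblast growth factor; compound effect assessed on resulting cord-like tubular structures.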

human melanoma 1205Lu = assay: Growth of human melanoma 1205Lu in RAG-1 mice; type: in vivo; conditions: 10, 20, 40 mg/kg/d; started when tumors about 0.1 ml
From the text: As apparent from FIG. 5, melanoma 1205Lu develops aggressively in RAG-1 mice after implantation.

| Structure (SMILES) | P-24 Elisa (HIV clinical isolate; Conc. 0.5 μM) | P-24 Elisa (HIV clinical isolate; Conc. 1 μM) | P-24 Elisa (HIV clinical isolate; Conc. 5 μM) | P-24 Elisa (HIV clinical isolate; Conc. 10 μM) | P-24 Elisa (HIV clinical isolate; Conc. 20 μM) | inhibition at 10 µg/mL (HIV clinical isolate; Human immunodeficiency virus 1, Lymphocyte, 10 μg/ml, read-out: Inhibition of antigen synthesis) [%] | Concentration effective in suppressing growth [1] [µg/mL] | Concentration maintaining cells quiescent without loss of viability [1] | Concentration that inhibits cord formation [2] | Effect on endothelial cord formation ([2]; 0.01 μg/ml) | Effect on endothelial cord formation ([2]; 0.1 μg/ml) | Effect on endothelial cord formation ([2]; 1.0 μg/ml) | Effect on endothelial cord formation ([2]; 10.0 μg/ml) | Suppression of tumor growth (human melanoma 1205Lu) |
| --- | --- | --- | --- | --- | --- | --- | --- | --- | --- | --- | --- | --- | --- | --- |
| CC(CC[C@@H](OS(=O)(=O)O)C(C)C)[C@H]1CCC2C3C(CC[C@@]21C)[C@@]1(C)CC[C@H](NCCCNCCCCNCCCN)C[C@@H]1C[C@H]3O (some centres unmarked) [Compound 1436] | 40561 | 7464 | 3426 | 421 | 9 | 97 | 10 to 12 | about 11 μg/ml |  |  |  |  |  |  |
| CC(CC[C@@H](OS(=O)(=O)O)C(C)C)[C@H]1CCC2C3C(CC[C@@]21C)[C@@]1(C)CC[C@H](NCCCNCCCCN)C[C@@H]1C[C@H]3O (some centres unmarked) [squalamine] |  |  |  |  |  |  |  |  | about 0.1 μg/ml | − | + | + | + | suppress the growth of melanoma 1205Lu in RAG-1 mice in a dose-dependent fashion |
